One assay concerns Syrian hamsters. Kind of assay: Hamster growth (body weight) with daily leupeptin injection. Conditions: for Hamster Weight: daily injection 0.8 mg leupeptin in 1 ml saline (about 20 mg/Kg per day). In kind it is in vivo. How it is done: 20 Syrian hamsters 3 weeks old and initially weighing an average of 40 grams each were subdivided into two groups. The groups were fed similarly. All animals received a daily injection of 1 ml of isotonic saline solution except that the saline solution administered to the test group had 0.8 mg of leupeptin dissolved therein, corresponding to about 20 mg/Kg per day based on the initial weight of the animals. The animals were weighed weekly and the results obtained were as follows: […]

In another assay the test system is pea seedlings. Kind of assay: Pea seedling growth (height) with leupeptin in watering. The settings on record: 10 mg leupeptin in 5 ml water per plant per day to the soil. In kind it is in vivo. How it is done:
20 pea seedlings 4 days after planting of seed and each containing an average of 5 leaves were divided into two matched groups. 5 ml of water per plant per day was supplied to the soil in which the control group was growing. The test group received the same 5 ml of water but 10 mg of leupeptin was dissolved therein. The lighting and other growth conditions were the same and the plant heights were measured daily. The first measurement was made on the day that the leupeptin-treated plants reached a height of about 1 cm, a practical minimum measuring height.

As for `CC(=O)N[C@@H](CC(C)C)C(=O)N[C@@H](CC(C)C)C(=O)N[C@H](C=O)CCCNC(=N)N` [Leupeptin, leupeptin], the “Hamster Weight” value in the assay on Syrian hamsters (Weeks 3) came to 47 ± 3 grams; in the assay on Syrian hamsters (Weeks 6) it was 75 ± 5 grams; in the assay with Syrian hamsters (Weeks 9), 87 ± 6 grams; in the assay on Syrian hamsters (Weeks 12) it was 95 ± 9 grams; in the assay with Syrian hamsters (Weeks 15) it was 105 ± 8 grams; in the assay on Syrian hamsters (Weeks 18) it was 110 ± 8 grams. Further, the “Hamster Weight” value stood at 115 ± 7 grams in the assay on Syrian hamsters (Weeks 21), 122 ± 10 grams in the assay with Syrian hamsters (Weeks 27) and 130 ± 9 grams in the assay with Syrian hamsters (Weeks 32). Further, the “Increase of hamster weight versus control” value in the assay with Syrian hamsters (at all stages of development, about 20 mg/Kg per day by injection) is 10-15%. Also, the “Muscle mass of isolated muscles” value in the assay on Syrian hamsters (muscles isolated from the treated hamsters) is “increased weight was attributable to a corresponding muscle mass increase”. Besides, the Pea seedling height was found to be 1 ± 0.2 cm in the assay on pea seedlings (Day 0); 1.5 ± 0.1 cm with pea seedlings (Day 1); 3.4 ± 0.2 cm in the assay on pea seedlings (Day 4); 5.2 ± 0.5 cm with pea seedlings (Day 6); 7.9 ± 0.5 cm in the assay with pea seedlings (Day 10); 9.2 ± 0.6 cm with pea seedlings (Day 12). This compound also displayed a Pea seedling height in the assay on pea seedlings (Day 15) of 12.1 ± 0.8 cm.

The values above are taken from patent publication US4510130A, “Promoting animal and plant growth with leupeptin” (Genetic Diagnostics Corporation, priority 1983, dated 1985).
